Test results from patent US20050228016A1, “TETRAHYDROQUINOLINES FOR MODULATING THE EXPRESSION OF EXOGENOUS GENES VIA AN ECDYSONE RECEPTOR COMPLEX” (priority 2002, published 2005).

Tests used:
Gal4DBD/AaEcR (DEF) = target: T1, Gal4DBD/AaEcR (DEF) (Aedes aegypti, UniProt P49880); assay: cell-based; format: cell-based; conditions: 33 μM; 3T3 cells; 48 h; average of two wells
T1 construct: The wildtype D, E, and F domains from mosquito Aedes aegypti EcR; expressed in transfected cells; host or cells: 3T3 cells
Protocol: 3T3 cells were trypsinized and plated at 2.5×10^3 cells/well on a 96-well plate. After incubation for 24 h at 37° C. under 5% CO2, cells were transfected with the Gal4DBD/AaEcR (DEF) gene expression cassette and the reporter plasmid, pFRLuc, containing a 5× GAL4 response element and the firefly luciferase gene in serum free media using Superfect (Qiagen). After transfection for 4 h at 37° C., the cells were treated with ligand in serum media. […] Single dose testing was performed at 33 μM.

[1] = target: T2, Bombyx mori EcR (VP16-BmEcR, CVBE) (Bombyx mori, UniProt P49881); assay: Z3 assay (HEK-293 clone Z3 with CVBE and 6x EcRE LacZ, β-galactosidase reporter); format: cell-based; conditions: 48 h, average of two wells
T2 construct: expressed in transfected cells
T2 sequence (P49881 86-606): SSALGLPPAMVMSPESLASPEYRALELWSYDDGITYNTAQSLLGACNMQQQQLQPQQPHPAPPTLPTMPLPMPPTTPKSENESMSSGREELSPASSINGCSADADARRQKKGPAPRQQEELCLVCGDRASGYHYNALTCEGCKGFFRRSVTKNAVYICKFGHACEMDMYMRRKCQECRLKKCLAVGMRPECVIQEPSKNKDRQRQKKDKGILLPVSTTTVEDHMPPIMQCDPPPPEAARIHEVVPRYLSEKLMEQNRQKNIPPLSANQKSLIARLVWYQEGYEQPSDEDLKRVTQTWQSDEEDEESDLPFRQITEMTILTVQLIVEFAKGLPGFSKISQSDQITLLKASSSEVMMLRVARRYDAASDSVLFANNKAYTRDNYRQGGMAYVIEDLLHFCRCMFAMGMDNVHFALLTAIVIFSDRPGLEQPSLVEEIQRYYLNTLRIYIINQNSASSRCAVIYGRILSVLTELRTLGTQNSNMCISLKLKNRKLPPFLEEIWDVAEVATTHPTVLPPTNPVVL
From the text: Dr. F. Gage provided a population of stably transformed cells containing CVBE and 6× EcRE as described in (Suhr et. al. 1998). Human 293 kidney cells, also referred to as HEK-293 cells, were sequentially infected with retroviral vectors encoding first the switch construct CVBE, and subsequently the reporter construct 6× EcRE Lac Z. The switch construct contained the coding sequence for amino acids 26-546 from Bombyx nori EcR (BE) (Iatrou) inserted in frame and downstream of the VP16 transactivation domain (VBE). A synthetic ATG start codon was placed under the control of cytomegalovirus (CVBE) immediate early promoter and flanked by long terminal repeats (LTR). The reporter-construct contained six copies of the ecdysone response element (EcRE) binding site placed upstream of LacZ and flanked on both sides with LTR sequences (6× EcRE).
Dilution cloning was used to isolate individual clones. Clones were selected using 450 μg/ml G418 and 100 ng/ml puromycin. Individual clones were evaluated based on their response in the presence and absence of test ligands.
Human 293 kidney cells stably transformed with CVBE and 6× EcRE lack were maintained in Minimum Essential Medium (Mediates, 10-010-CV) containing 10%.FBS (Life Technologies, 26140-087),[…] G418 (Mediates, 30-234-CR), and […] (Sigma, P-7255), at 37° C. in an atmosphere containing 5% CO2 and were subculture when they reached 75% confluence.
Z3 cells were seeded into 96-well tissue culture plates at a concentration of 2.5×10^3 cells per well and incubated at 37° C. in 5% CO2 for twenty-four hours. Stock solutions of ligands were prepared in DMSO. Ligand stock solutions were diluted 100.fold in media and 50 μL of this diluted ligand solution (33 μM) was added to cells.
Reporter gene expression was evaluated 48 hours after treatment of cells, β-galactosidase activity was measured using Gal Screen™ bioluminescent reporter gene assay system from Tropix (GSY1000).
Flanking both constructs are long terminal repeats, G418 and puromycin are selectable markers, CMV is the cytomegalovirus promoter, VBE is coding sequence for amino acids 26-546 from Bombyx mori EcR inserted downstream of the VP16 transactivation domain, 6× EcRE is six copies of the ecdysone response element, lacZ encodes for the reporter enzyme β-galactosidase.

T1 sequence (P28704 286-520 A311G/G315S/G445S/I449V): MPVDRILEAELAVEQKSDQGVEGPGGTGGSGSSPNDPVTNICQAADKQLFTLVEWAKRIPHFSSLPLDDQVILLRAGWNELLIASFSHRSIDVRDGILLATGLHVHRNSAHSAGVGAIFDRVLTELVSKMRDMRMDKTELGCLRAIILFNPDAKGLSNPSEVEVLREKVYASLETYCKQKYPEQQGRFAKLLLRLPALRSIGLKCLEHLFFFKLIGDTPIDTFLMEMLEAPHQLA
T1 sequence (P49880 405-776): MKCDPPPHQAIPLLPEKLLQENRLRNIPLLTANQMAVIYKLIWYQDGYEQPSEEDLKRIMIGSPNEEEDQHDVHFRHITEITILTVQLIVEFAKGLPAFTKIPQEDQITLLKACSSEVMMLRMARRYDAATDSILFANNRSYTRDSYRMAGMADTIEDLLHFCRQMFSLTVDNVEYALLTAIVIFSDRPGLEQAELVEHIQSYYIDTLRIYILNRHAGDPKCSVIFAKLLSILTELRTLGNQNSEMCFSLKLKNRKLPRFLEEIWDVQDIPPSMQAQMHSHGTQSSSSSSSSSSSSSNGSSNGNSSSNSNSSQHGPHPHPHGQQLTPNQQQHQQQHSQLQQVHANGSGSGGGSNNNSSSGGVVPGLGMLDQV

Compound | Fold Induction Average, AA_3T3V1 Assay 33 μM (Gal4DBD/AaEcR (DEF)) | Fold Induction Average, Z3V1 Assay 33 μM [1]
Cc1ccc(C(=O)N2c3ccccc3C(Nc3ccc(F)cc3)CC2C)cc1 (mixture of isomers) [Compound I-40] | 81 fold | 24 fold
Cc1ccc(C(=O)N2c3ccccc3C(Nc3cccc(Cl)c3)CC2C)cc1 (mixture of isomers) [Compound I-42] | 80 fold | 1 fold
Cc1ccc(C(=O)N2c3ccccc3C(Nc3ccc(Cl)cc3)CC2C)cc1 (mixture of isomers) [Compound I-43] | 114 fold | 3 fold
Cc1ccc(NC2CC(C)N(C(=O)c3ccc(C)cc3)c3ccccc32)cc1 (mixture of isomers) [Compound I-45] | 67 fold | 3 fold
COc1ccc(NC2CC(C)N(C(=O)c3ccc(C)cc3)c3ccccc32)cc1 (mixture of isomers) [Compound I-47] | 81 fold | 2 fold
CCCCCCC(=O)N1c2ccccc2[C@@H](Nc2ccccc2)C[C@@H]1C (relative stereo) [Compound I-1] | – | 10 fold
C[C@H]1C[C@@H](Nc2ccc(F)cc2)c2cc(F)ccc2N1C(=O)c1ccc(F)c(C(F)(F)F)c1 (relative stereo) [Compound I-4] | 4 fold | 1 fold
Cc1ccc(C(=O)N2c3ccccc3[C@H](Nc3ccccc3)C[C@@H]2C)cc1F (relative stereo) [Compound I-19] | 70 fold | 1 fold
Cc1ccc(N[C@H]2C[C@H](C)N(C(=O)c3ccc(F)c(F)c3)c3ccc(C)cc32)cc1 (relative stereo) [Compound I-21] | 52 fold | 1 fold
Cc1ccc(N[C@H]2C[C@H](C)N(C(=O)c3ccc(C(F)(F)F)c(F)c3)c3ccc(C)cc32)cc1 (relative stereo) [Compound I-23] | 87 fold | 1 fold
C[C@H]1C[C@@H](Nc2ccc(F)cc2)c2cc(F)ccc2N1C(=O)c1ccc(F)c(F)c1 (relative stereo) [Compound I-24] | 132 fold | 7 fold
C[C@H]1C[C@@H](Nc2ccc(F)cc2)c2cc(F)ccc2N1C(=O)c1ccc(C(F)(F)F)c(F)c1 (relative stereo) [Compound I-25] | 147 fold | 1 fold
CCc1ccc(C(=O)N2c3ccc(C)cc3[C@@H](Nc3ccc(C)cc3)C[C@@H]2C)cc1 (relative stereo) [Compound I-64] | 681 fold | 1 fold
C[C@H]1C[C@H](Nc2ccc(F)cc2)c2cc(F)ccc2N1C(=O)c1ccc(Cl)cc1 (relative stereo) [Compound I-65] | 345 fold | 82 fold
CCc1ccc(C(=O)N2c3ccc(F)cc3[C@@H](Nc3ccc(F)cc3)C[C@@H]2C)cc1 (relative stereo) [Compound I-66] | 813 fold | 206 fold
CCCC(=O)N1c2ccccc2C(N(C(=O)c2cccc(OC)c2)c2ccccc2)CC1C (centres unmarked) [Compound I-160] | – | 1 fold
CC1CC(Nc2ccccc2)c2ccccc2N1C(=O)CN1C(=O)CCC1=O (centres unmarked) [Compound I-167] | 1 fold | –
CC1CC(Nc2ccccc2)c2ccccc2N1C(=O)Cc1cccc2ccccc12 (centres unmarked) [Compound I-169] | – | 1 fold
Cc1ccc(NC2CC(C)N(C(=O)c3cccc(F)c3)c3ccc(C)cc32)cc1 (centres unmarked) [Compound I-174] | 1 fold | –
CC1CC(Nc2ccccc2)c2ccccc2N1C(=O)Nc1ccccc1 (centres unmarked) [Compound I-176] | 268 fold | –
COc1ccc(C=CC(=O)N2c3ccccc3C(Nc3ccccc3)CC2C)cc1 (centres unmarked) [Compound I-177] | 126 fold | –

Compound | Fold Induction Average, AA_3T3V1 Assay 33 μM (Gal4DBD/AaEcR (DEF)) | Fold Induction Average, Z3V1 Assay 33 μM [1]
CC1CC(N(C(=O)C(F)(F)F)c2ccccc2)c2ccccc2N1C(=O)C(F)(F)F (centres unmarked) [Compound I-182] | 1 fold | –
CCCCCC(=O)N1c2ccccc2C(N(C(=O)c2ccccc2F)c2ccccc2)CC1C (centres unmarked) [Compound I-186] | 1 fold | –
Cc1ccc(C(=O)N2c3c(C)cccc3C(Nc3ccccc3C)CC2C)cc1 (centres unmarked) [Compound I-187] | 1 fold | –
CC(=O)N(c1ccc(F)cc1)C1CC(C)N(C(=O)c2ccc(C)c(F)c2)c2ccc(F)cc21 (centres unmarked) [Compound I-195] | 1 fold | –
Cc1cccc(C(=O)N2c3ccccc3C(Nc3ccccc3)CC2C)c1 (centres unmarked) [Compound I-198] | 135 fold | –
CC1CC(Nc2ccccc2)c2ccccc2N1C(=O)c1cccc(F)c1 (centres unmarked) [Compound I-199] | 147 fold | –
COc1cccc(C(=O)N2c3ccccc3C(Nc3ccccc3)CC2C)c1 (centres unmarked) [Compound I-200] | 212 fold | –
CC1CC(Nc2ccccc2)c2ccccc2N1C(=O)c1cccc(C(F)(F)F)c1 (centres unmarked) [Compound I-201] | 71 fold | –
Cc1ccc(NC2CC(C)N(C(=O)c3cccc(F)c3)c3ccc(C)cc32)cc1 (centres unmarked) [Compound I-203] | 3 fold | –
COc1cccc(C(=O)N2c3ccc(C)cc3C(Nc3ccc(C)cc3)CC2C)c1 (centres unmarked) [Compound I-204] | 1 fold | –
Cc1cccc(C(=O)N2c3ccc(F)cc3C(Nc3ccc(F)cc3)CC2C)c1 (centres unmarked) [Compound I-206] | 142 fold | –
CC1CC(Nc2ccc(F)cc2)c2cc(F)ccc2N1C(=O)c1cccc(F)c1 (centres unmarked) [Compound I-207] | 108 fold | –
COc1cccc(C(=O)N2c3ccc(F)cc3C(Nc3ccc(F)cc3)CC2C)c1 (centres unmarked) [Compound I-208] | 989 fold | –
CC1CC(Nc2ccc(F)cc2)c2cc(F)ccc2N1C(=O)c1cccc(C(F)(F)F)c1 (centres unmarked) [Compound I-209] | 384 fold | –
CC1CC(Nc2ccccc2)c2ccccc2N1C(=O)Nc1ccccc1 (centres unmarked) [Compound I-211] | 638 fold | –
CC1CC(Nc2ccccc2)c2ccccc2N1C(=O)Nc1ccc(Cl)cc1 (centres unmarked) [Compound I-212] | 367 fold | –
CC1CC(Nc2ccccc2)c2ccccc2N1C(=O)Nc1cccc(Cl)c1 (centres unmarked) [Compound I-213] | 527 fold | –
Cc1cccc(NC(=O)N2c3ccccc3C(Nc3ccccc3)CC2C)c1 (centres unmarked) [Compound I-215] | 1052 fold | –
Cc1ccc(NC2CC(C)N(C(=O)Nc3ccccc3)c3ccc(C)cc32)cc1 (centres unmarked) [Compound I-216] | 2 fold | –
Cc1ccc(NC2CC(C)N(C(=O)Nc3ccc(Cl)cc3)c3ccc(C)cc32)cc1 (centres unmarked) [Compound I-217] | 8 fold | –
trans-2-methyl-6-fluoro-1-(3-fluoro-4-methylbenzoyl)-4-(4-methylphenylamino), 4-(3-fluoro-4-methylbenzoyl)-1,2,3,4-tetrahydroquinoline [Compound I-196] | 1 fold | –
